In PubChem BioAssay AID1213 (NMMLSC, 2008):
Inconclusive results are not listed. Activity calls are given as the source filed them.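 Rule for the calls: active = compound giving calcium release at least equal to the estrogen response, or cutting estrogen-driven calcium release by 60% or more; inconclusive = compound glowing brighter than the detergent maximum; inactive = the rest.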

Molecular target: G-protein coupled estrogen receptor 1 (Homo sapiens) (UniProt Q99527)
Assay: GPER-mediated calcium mobilization modulators – HL-60 cells, Indo-1 fluorescence, 10 µM, primary screen (AID 1213)
Conditions: Indo-1 calcium mobilization, at 10 µM; for calcium mobilization (agonist): stronger effect = higher value; for inhibition of estrogen-induced calcium mobilization (higher = more inhibition): measured here: antagonist mode response

Cc1cc(C)cc(OCC(=O)Nc2ccc(N3CCCC3)cc2)c1
calcium mobilization (agonist): 0% (inactive)

COc1cccc2c1NC(C(=O)O)C1CC=CC21 (centres undefined)
calcium mobilization (agonist): 0% (inactive)

CCOC(=O)c1ccc2c(c1)C1C=CCC1C(C(=O)O)N2 (centres undefined)
calcium mobilization (agonist): 0% (inactive)

C[C@H]1CCC[C@@H](O)CCC/C=C/c2cc(O)cc(O)c2C(=O)O1
calcium mobilization (agonist): 50% (inactive)

O=S(=O)(NCCc1csc(-c2cccnc2)n1)c1ccc(Cl)s1
calcium mobilization (agonist): 100%

O=C(O)c1ccc2c(c1)C1C(Cl)C(Sc3ccccc3[N+](=O)[O-])CC1C(c1cccc([N+](=O)[O-])c1)N2 (centres undefined)
calcium mobilization (agonist): 0%
inhibition of estrogen-induced calcium mobilization (higher = more inhibition): 100%

Fc1ccc2c(c1)C1C=CCC1C(c1cc3c(cc1Br)OCO3)N2 (centres undefined)
calcium mobilization (agonist): 100%

O=C(c1cc2ncc(Br)cn2n1)N1CCN(C(=O)c2ccco2)CC1
calcium mobilization (agonist): 0% (inactive)

Cc1nn(-c2ccccc2)c(/N=C/c2ccc(O)cc2)c1-c1ccccc1
calcium mobilization (agonist): 0% (inactive)

O=C(O)c1cc(Cl)c2c(c1)[C@@H]1C=CC[C@@H]1[C@H](c1ccc(S(=O)(=O)N3CCOCC3)cc1)N2
calcium mobilization (agonist): 0% (inactive)

O=C(O)C1Nc2c(O)cccc2C2C=CCC12 (centres undefined)
calcium mobilization (agonist): 50% (inactive)

COc1ccc(CNC(=O)c2cc(-c3cccs3)on2)cc1
calcium mobilization (agonist): 0% (inactive)

C[C@]12CC[C@@H]3c4ccc(O)cc4[C@@H](O)C[C@H]3[C@@H]1CC[C@@H]2O
calcium mobilization (agonist): 0% (inactive)

Fc1ccc2c(c1)[C@H]1OCC[C@H]1[C@@H](c1ccco1)N2
calcium mobilization (agonist): 100%

Nc1ncnc2c1ncn2C1CCC(CO)C(O)C1 (centres undefined)
calcium mobilization (agonist): 0% (inactive)

CC(C)C1Nc2c(O)cc(Cl)c([N+](=O)[O-])c2C2C=CCC21 (centres undefined)
calcium mobilization (agonist): 100%

FC(F)(F)c1ccc2c(c1)C1C=CCC1C(c1ccncc1)N2 (centres undefined)
calcium mobilization (agonist): 0% (inactive)
inhibition of estrogen-induced calcium mobilization (higher = more inhibition): 50%

Cc1cc(-c2nn3c(-c4ccccc4)nnc3s2)c2ccccc2n1
calcium mobilization (agonist): 0% (inactive)

CC(=O)N1c2ccc(Cl)cc2C2C=CCC2C1c1cccc2ccccc12 (centres undefined)
calcium mobilization (agonist): 100%

CCCNC(=O)c1ccc2c(c1)C1C3CCC(C3)C1C(c1ccccc1)N2 (centres undefined)
calcium mobilization (agonist): 100%

CCc1ccc(-c2nn(-c3ccccc3)cc2CSC(=N)N)cc1
calcium mobilization (agonist): 50% (inactive)

CCNC(=O)c1ccc2c(c1)C1C3CCC(C3)C1C(c1ccccc1)N2 (centres undefined)
calcium mobilization (agonist): 100%

Cc1cc(C)c2c(c1)[C@@H]1C=CC[C@@H]1[C@H](c1ccc(S(=O)(=O)N3CCOCC3)cc1)N2
calcium mobilization (agonist): 0%
inhibition of estrogen-induced calcium mobilization (higher = more inhibition): 100%

Cc1c(Cl)cccc1NS(=O)(=O)c1ccc2c(c1)C1C=CCC1C(c1ccc(C(=O)O)cc1)N2 (centres undefined)
calcium mobilization (agonist): 0%
inhibition of estrogen-induced calcium mobilization (higher = more inhibition): 100%

Cc1ccc2c(c1)[C@H]1OCC[C@H]1[C@@H](c1ccncc1)N2
calcium mobilization (agonist): 0% (inactive)
inhibition of estrogen-induced calcium mobilization (higher = more inhibition): 50%

NS(=O)(=O)c1ccc2c(c1)C1C=CCC1C(C1CC=CCC1)N2 (centres undefined)
calcium mobilization (agonist): 0% (inactive)

COc1cccc(NS(=O)(=O)c2ccc3c(c2)C2C=CCC2C(c2ccc(C(=O)O)cc2)N3)c1 (centres undefined)
calcium mobilization (agonist): 0%
inhibition of estrogen-induced calcium mobilization (higher = more inhibition): 100%

COc1ccc(NC(=O)C(c2ccccc2)N(C)C(=O)c2ccc(=O)[nH]c2)cc1 (centres undefined)
calcium mobilization (agonist): 0% (inactive)

CC(C)C1Nc2ccc(S(N)(=O)=O)cc2C2C=CCC21 (centres undefined)
calcium mobilization (agonist): 0% (inactive)

Cc1ccc2c(c1C)NC(C(=O)O)C1CC=CC21 (centres undefined)
calcium mobilization (agonist): 0%
inhibition of estrogen-induced calcium mobilization (higher = more inhibition): 100%

O=C(COC(=O)CCC(=O)c1cccs1)NCc1ccco1
calcium mobilization (agonist): 0% (inactive)

Cc1ccc2c(c1)C1C=CCC1C(C(=O)O)N2 (centres undefined)
calcium mobilization (agonist): 0% (inactive)
inhibition of estrogen-induced calcium mobilization (higher = more inhibition): 50%

O=C(O)c1ccc2c(c1)[C@@H]1C=CC[C@@H]1[C@H](c1ccccn1)N2
calcium mobilization (agonist): 0% (inactive)

N=C1C(c2nc3ccccc3[nH]2)=C(O)CN1c1ccc(CC(=O)O)cc1
calcium mobilization (agonist): 0% (inactive)

COc1ccc(OC)c(C2Nc3c(Cl)ccc(C(=O)O)c3C3C=CCC32)c1 (centres undefined)
calcium mobilization (agonist): 50% (inactive)

CCc1nc2sc3ccccc3c(=O)c2c(=O)n1Cc1ccco1
calcium mobilization (agonist): 0% (inactive)

O=C(O)c1ccc2c(c1)C1C=CCC1C(c1cc3c(cc1Br)OCO3)N2 (centres undefined)
calcium mobilization (agonist): 100%

Cc1cc(C(=O)Nc2sc3c(c2C#N)CCC3)no1
calcium mobilization (agonist): 0% (inactive)

O=C(O)C1Nc2c(O)cc(Cl)c([N+](=O)[O-])c2C2C=CCC12 (centres undefined)
calcium mobilization (agonist): 0% (inactive)

O=C(NC1CC1)c1ccc2c(c1)C1C3CCC(C3)C1C(c1ccccc1)N2 (centres undefined)
calcium mobilization (agonist): 100%

CN(C)C(=O)c1ccc2c(c1)C1C3CCC(C3)C1C(c1ccccc1)N2 (centres undefined)
calcium mobilization (agonist): 100%

O=C(Cc1cccs1)Nc1ccc(S(=O)(=O)Nc2ncccn2)cc1
calcium mobilization (agonist): 0% (inactive)

Cc1cc([N+](=O)[O-])c2c(c1C)C1C=CCC1C(c1ccccn1)N2 (centres undefined)
calcium mobilization (agonist): 0% (inactive)

Oc1ccc(-c2nc(-c3ccc(O)c(O)c3)cs2)cc1
calcium mobilization (agonist): 0% (inactive)

COc1cccc(C2Nc3c(F)cc(Br)cc3C3C=CCC32)c1OC (centres undefined)
calcium mobilization (agonist): 0% (inactive)

CCc1ccc2c(c1)[C@H]1OCC[C@H]1[C@@H](c1cccs1)N2
calcium mobilization (agonist): 50% (inactive)

CCC(=O)Oc1ccc(/C(CC)=C(\CC)c2ccc(OC(=O)CC)cc2)cc1
calcium mobilization (agonist): 0% (inactive)
inhibition of estrogen-induced calcium mobilization (higher = more inhibition): 50%

Cc1cc(C)c2c(c1)NC(c1cc3c(cc1Br)OCO3)C1CC=CC21 (centres undefined)
calcium mobilization (agonist): 50% (inactive)

O=C(O)c1ccc(NS(=O)(=O)c2ccc3c(c2)C2C=CCC2C(c2ccccc2F)N3)cc1 (centres undefined)
calcium mobilization (agonist): 0% (inactive)
inhibition of estrogen-induced calcium mobilization (higher = more inhibition): 50%

Oc1ccc(-c2nc3ccc4ccccc4c3c3c2CCC3)cc1O
calcium mobilization (agonist): 0% (inactive)

Cc1ccc2c(c1Cl)NC(C(=O)O)C1CC(Sc3ccccc3[N+](=O)[O-])C(Cl)C21 (centres undefined)
calcium mobilization (agonist): 0%
inhibition of estrogen-induced calcium mobilization (higher = more inhibition): 100%

O=C(O)C1Nc2c(C(=O)N3CCOCC3)cccc2C2C=CCC12 (centres undefined)
calcium mobilization (agonist): 0% (inactive)

O=C(O)c1ccc(Cl)c2c1C1C=CCC1C(c1ccccn1)N2 (centres undefined)
calcium mobilization (agonist): 50% (inactive)

O=C(Nc1cc(C(F)(F)F)ccc1N1CCOCC1)C1Cc2ccccc2CN1C(=O)c1ccco1 (centres undefined)
calcium mobilization (agonist): 0% (inactive)

CCCCOC(=O)c1c(C)oc2ccc(NS(=O)(=O)c3ccc4c5c(cccc35)C(=O)N4)cc12
calcium mobilization (agonist): 0% (inactive)

CC(C)C1Nc2ccc(C(=O)O)cc2C2C=CCC21 (centres undefined)
calcium mobilization (agonist): 0%
inhibition of estrogen-induced calcium mobilization (higher = more inhibition): 100%

COc1ccc(C(=O)N/N=C(\C)c2ccc3c(c2)C2C=CCC2C(c2ccccc2)N3)cc1 (centres undefined)
calcium mobilization (agonist): 50% (inactive)
inhibition of estrogen-induced calcium mobilization (higher = more inhibition): 50%

CCn1nnc(NC(=O)CSc2ccc(Cl)cc2)n1
calcium mobilization (agonist): 0% (inactive)

CC(C)c1ccc2c(c1)[C@H]1OCC[C@H]1[C@@H](c1cccs1)N2
calcium mobilization (agonist): 0% (inactive)

CC(=O)c1ccc2c(c1)C1C=CCC1C(c1ccncc1)N2 (centres undefined)
calcium mobilization (agonist): 100%

COc1cc(C2Nc3c(F)cccc3C3C=CCC32)cc(Br)c1OC (centres undefined)
calcium mobilization (agonist): 0% (inactive)

O=C(OC1CCCCC1)c1ccc2c(c1)C1C=CCC1C(C(=O)O)N2 (centres undefined)
calcium mobilization (agonist): 0% (inactive)

CCC(=O)Oc1ccc(C(CC)C(CC)c2ccc(OC(=O)CC)cc2)cc1 (centres undefined)
calcium mobilization (agonist): 0% (inactive)

CC(=O)c1ccc2c(c1)C1C=CCC1C(c1ccc(S(=O)(=O)N3CCOCC3)cc1)N2 (centres undefined)
calcium mobilization (agonist): 100%

Cc1nnc(SCC(=O)NC(=O)NCc2ccco2)n1Cc1ccccc1
calcium mobilization (agonist): 0% (inactive)

O=C1NC(c2ccc(Br)cc2)Nc2sc3c(c21)CCC3 (centres undefined)
calcium mobilization (agonist): 50% (inactive)
inhibition of estrogen-induced calcium mobilization (higher = more inhibition): 50%

CC(=O)Nc1ccc(OC(=O)CC2SC(=O)NC2=O)cc1 (centres undefined)
calcium mobilization (agonist): 0% (inactive)

COc1ccc2c(c1)C1C=CCC1C(c1cc3c(cc1Br)OCO3)N2 (centres undefined)
calcium mobilization (agonist): 100%

CCCCCCNC(=O)c1cc(-c2ccco2)nc2ccccc12
calcium mobilization (agonist): 0% (inactive)

CC(=O)c1ccc2c(c1)C1C(Cl)C(Sc3ccccc3[N+](=O)[O-])CC1C(c1ccccc1)N2 (centres undefined)
calcium mobilization (agonist): 0% (inactive)

C[C@]12CC[C@@H]3c4ccc(O)cc4C(=O)C[C@H]3[C@@H]1CC[C@@H]2O
calcium mobilization (agonist): 0% (inactive)

CC(=O)c1ccc2c(c1)C1C=CCC1C(C(=O)O)N2 (centres undefined)
calcium mobilization (agonist): 0% (inactive)

Cn1ccnc1SCC(=O)Nc1ccc2nc(SCC(=O)NC3CC3)sc2c1
calcium mobilization (agonist): 0% (inactive)

CCCC1Nc2ccc(C(=O)O)cc2C2C=CCC12 (centres undefined)
calcium mobilization (agonist): 0% (inactive)

CC(C)(C)NC(=O)c1ccc2c(c1)C1C3CCC(C3)C1C(c1ccccc1)N2 (centres undefined)
calcium mobilization (agonist): 100%
